Reference: ChEMBL document CHEMBL1697731, “Cheminformatics analysis of assertions mined from literature that describe drug-induced liver injury in different species” (Chem Res Toxicol, 2010)

What was measured:
[1] = system: Hepatotoxicity; assay: Literature-mined compound from Fourches et al multi-species drug-induced liver injury (DILI) dataset, effect in non-rodents
[2] = system: Hepatotoxicity; assay: Literature-mined compound from Fourches et al multi-species drug-induced liver injury (DILI) dataset, effect in humans; conditions: human
[3] = system: Hepatotoxicity; assay: Literature-mined compound from Fourches et al multi-species drug-induced liver injury (DILI) dataset, effect in rodents; conditions: rodentia

Row | Structure (SMILES) | Hepatotoxicity [1] | Hepatotoxicity [2] | Hepatotoxicity [3] | Hepatotoxicity ([1]; Liver) | Hepatotoxicity ([2]; Liver) | Hepatotoxicity ([3]; Liver)
1 | [H]/N=C(/N)N/C(=N/[H])NCCc1ccccc1 [PHENFORMIN] | no drug-induced liver injury reported | no drug-induced liver injury reported | drug-induced liver injury reported | – | – | –
2 | COc1ccc(C(CN(C)C)C2(O)CCCCC2)cc1 (stereo not given) [VENLAFAXINE] | no drug-induced liver injury reported | drug-induced liver injury reported | no drug-induced liver injury reported | – | – | –
3 | Cc1cccc(C)c1NC(=O)C1CCCCN1C (stereo not given) [MEPIVACAINE] | no drug-induced liver injury reported | no drug-induced liver injury reported | drug-induced liver injury reported | – | – | –
4 | C=CC1=C(C(=O)O)N2C(=O)[C@@H](NC(=O)/C(=N\OCC(=O)O)c3csc(N)n3)[C@H]2SC1 [CEFIXIME] | no drug-induced liver injury reported | drug-induced liver injury reported | no drug-induced liver injury reported | – | – | –
5 | CN(C)C(=O)C(CCN1CCC(O)(c2ccc(Cl)cc2)CC1)(c1ccccc1)c1ccccc1 [LOPERAMIDE] | no drug-induced liver injury reported | no drug-induced liver injury reported | drug-induced liver injury reported | – | – | –
6 | C#CC1(O)CCC2C3CCC4=CC(=O)CCC4C3C(=C)CC21CC (stereo not given) [IMPLANON] | no drug-induced liver injury reported | drug-induced liver injury reported | no drug-induced liver injury reported | – | – | –
7 | O=C(CCCN1CCC(O)(c2ccc(Cl)cc2)CC1)c1ccc(F)cc1 [HALOPERIDOL] | drug-induced liver injury reported | drug-induced liver injury reported | drug-induced liver injury reported | – | – | –
8 | CN[C@H](CC(C)C)C(=O)N[C@H]1C(=O)N[C@@H](CC(N)=O)C(=O)N[C@H]2C(=O)N[C@H]3C(=O)N[C@H](C(=O)N[C@H](C(=O)O)c4cc(O)cc(O)c4-c4cc3ccc4O)[C@H](O)c3ccc(c(Cl)c3)Oc3cc2cc(c3O[C@@H]2O[C@H](CO)[C@@H](O)[C@H](O)[C@H]2O[C@H]2C[C@](C)(N)[C@H](O)[C@H](C)O2)Oc2ccc(cc2Cl)[C@H]1O [VANCOMYCIN] | no drug-induced liver injury reported | drug-induced liver injury reported | drug-induced liver injury reported | – | – | –
9 | CCCCC(=O)O[C@H]1CC[C@H]2[C@@H]3CCc4cc(O)ccc4[C@H]3CC[C@]12C [ESTRADIOL VALERATE] | no drug-induced liver injury reported | no drug-induced liver injury reported | drug-induced liver injury reported | – | – | –
10 | C/C=C/C[C@@H](C)C(=O)[C@H]1C(=O)N[C@@H](C(C)C)C(=O)N(C)CC(=O)N(C)[C@@H](CC(C)C)C(=O)N[C@@H](C(C)C)C(=O)N(C)[C@@H](CC(C)C)C(=O)N[C@@H](C)C(=O)N[C@H](C)C(=O)N(C)[C@@H](CC(C)C)C(=O)N(C)[C@@H](CC(C)C)C(=O)N(C)[C@@H](C(C)C)C(=O)N1C [VALSPODAR] | no drug-induced liver injury reported | drug-induced liver injury reported | drug-induced liver injury reported | – | – | –
11 | C[C@]12CCC(=O)C=C1CC[C@@H]1[C@@H]2CC[C@@]2(C)[C@H]1CC[C@]2(C)O (stereo in doubt; form 1) [METHYLTESTOSTERONE] | no drug-induced liver injury reported | no drug-induced liver injury reported | drug-induced liver injury reported | – | – | –
12 | COc1cc(Cc2cnc(N)nc2N)cc(OC)c1OC [TRIMETHOPRIM] | – | – | – | no drug-induced liver injury reported | drug-induced liver injury reported | drug-induced liver injury reported
13 | CC(C)(C#N)c1cc(Cn2cncn2)cc(C(C)(C)C#N)c1 [ANASTROZOLE] | no drug-induced liver injury reported | drug-induced liver injury reported | no drug-induced liver injury reported | – | – | –
14 | N[C@@H](CCC(=O)O)C(=O)O [GLUTAMIC ACID] | no drug-induced liver injury reported | no drug-induced liver injury reported | drug-induced liver injury reported | – | – | –
15 | CCCC(=O)Nc1ccc(OCC(O)CNC(C)C)c(C(C)=O)c1 (stereo not given) [ACEBUTOLOL] | no drug-induced liver injury reported | drug-induced liver injury reported | drug-induced liver injury reported | – | – | –
16 | C=C[C@H]1C[N@@]2CC[C@H]1C[C@@H]2[C@@H](O)c1ccnc2ccc(OC)cc12 [QUINIDINE] | no drug-induced liver injury reported | drug-induced liver injury reported | drug-induced liver injury reported | – | – | –
17 | N[C@@H](Cc1cc(I)c(Oc2ccc(O)c(I)c2)c(I)c1)C(=O)O [LIOTHYRONINE] | no drug-induced liver injury reported | drug-induced liver injury reported | drug-induced liver injury reported | – | – | –
18 | Nc1nc2ncc(CNc3ccc(C(=O)N[C@@H](CCC(=O)O)C(=O)O)cc3)nc2c(=O)[nH]1 [FOLIC ACID] | no drug-induced liver injury reported | drug-induced liver injury reported | drug-induced liver injury reported | – | – | –

Row | Structure (SMILES) | Hepatotoxicity [1] | Hepatotoxicity [2] | Hepatotoxicity [3] | Hepatotoxicity ([1]; Liver) | Hepatotoxicity ([2]; Liver) | Hepatotoxicity ([3]; Liver)
19 | CC1=C(/C=C/C(C)=C/C=C/C(C)=C/C=C/C=C(C)/C=C/C=C(C)/C=C/C2=C(C)CCCC2(C)C)C(C)(C)CCC1 [BETA CAROTENE] | drug-induced liver injury reported | drug-induced liver injury reported | drug-induced liver injury reported | – | – | –
20 | CC(=O)CC(c1ccccc1)c1c(O)c2ccccc2oc1=O (stereo not given) [WARFARIN] | no drug-induced liver injury reported | drug-induced liver injury reported | drug-induced liver injury reported | – | – | –
21 | C[C@H](N[C@@H](CCc1ccccc1)C(=O)O)C(=O)N1CCC[C@H]1C(=O)O [ENALAPRILAT ANHYDROUS] | no drug-induced liver injury reported | drug-induced liver injury reported | no drug-induced liver injury reported | – | – | –
22 | CN(CCCN1c2ccccc2CCc2ccccc21)CC(=O)c1ccc(Cl)cc1 [LOFEPRAMINE] | no drug-induced liver injury reported | drug-induced liver injury reported | no drug-induced liver injury reported | – | – | –
23 | CCOC(=O)C(C)(C)Oc1ccc(Cl)cc1 [CLOFIBRATE] | drug-induced liver injury reported | drug-induced liver injury reported | drug-induced liver injury reported | – | – | –
24 | O=S(=O)([O-])Oc1ccc(C(c2ccc(OS(=O)(=O)[O-])cc2)c2ccccn2)cc1.[Na+].[Na+] [SODIUM PICOSULFATE] | no drug-induced liver injury reported | drug-induced liver injury reported | no drug-induced liver injury reported | – | – | –
25 | CC(C)c1c(C(=O)Nc2ccccc2)c(-c2ccccc2)c(-c2ccc(F)cc2)n1CC[C@@H](O)C[C@@H](O)CC(=O)O [ATORVASTATIN] | – | – | – | drug-induced liver injury reported | drug-induced liver injury reported | drug-induced liver injury reported
26 | COP(=O)(OC)C(O)C(Cl)(Cl)Cl (stereo not given) [TRICHLORFON] | no drug-induced liver injury reported | no drug-induced liver injury reported | drug-induced liver injury reported | – | – | –
27 | CC(C(=O)O)c1ccc(N2CC=CC2)c(Cl)c1 (stereo not given) [PIRPROFEN] | no drug-induced liver injury reported | drug-induced liver injury reported | drug-induced liver injury reported | – | – | –
28 | O=c1[nH]cc(Br)c(=O)[nH]1 [5-BROMOURACIL] | no drug-induced liver injury reported | no drug-induced liver injury reported | drug-induced liver injury reported | – | – | –
29 | CC(=O)Nc1c(I)c(NC(C)=O)c(I)c(C(=O)[O-])c1I.[Na+] [DIATRIZOATE SODIUM] | no drug-induced liver injury reported | no drug-induced liver injury reported | drug-induced liver injury reported | – | – | –
30 | c1ccc2[nH]c(-c3cscn3)nc2c1 [THIABENDAZOLE] | drug-induced liver injury reported | drug-induced liver injury reported | drug-induced liver injury reported | – | – | –
31 | CC[C@@H]1C(=O)OC[C@@H]1Cc1cncn1C [PILOCARPINE] | no drug-induced liver injury reported | no drug-induced liver injury reported | drug-induced liver injury reported | – | – | –
32 | Oc1c2ccccc2c2c3c(cccc13)N=N2 [SP-600125] | no drug-induced liver injury reported | drug-induced liver injury reported | drug-induced liver injury reported | – | – | –
33 | Cc1ncc2n1-c1ccc(Cl)cc1C(c1ccccc1F)=NC2 [MIDAZOLAM] | no drug-induced liver injury reported | no drug-induced liver injury reported | drug-induced liver injury reported | – | – | –
34 | NC(=O)CC[C@H](N)C(=O)O [GLUTAMINE] | drug-induced liver injury reported | drug-induced liver injury reported | drug-induced liver injury reported | – | – | –
35 | CN/C(=N/CCSCc1nc[nH]c1C)NC#N [CIMETIDINE] | – | – | – | drug-induced liver injury reported | drug-induced liver injury reported | drug-induced liver injury reported
